# Experimental data: PMC10296591, “Potent GST Ketosteroid Isomerase Activity Relevant to Ecdysteroidogenesis in the Malaria Vector Anopheles gambiae” (Biomolecules, 2023)
# Experiments:
# Format in all cases: biochemical
# [1] = molecular target: T1, Nobo (Anopheles gambiae, UniProt Q8WQJ5); test: steady-state kinetics of double-bond isomerization by purified enzyme (kcat/Km)
# T1 construct: gene GSTe8
# T1 sequence (Q8WQJ5 1-217): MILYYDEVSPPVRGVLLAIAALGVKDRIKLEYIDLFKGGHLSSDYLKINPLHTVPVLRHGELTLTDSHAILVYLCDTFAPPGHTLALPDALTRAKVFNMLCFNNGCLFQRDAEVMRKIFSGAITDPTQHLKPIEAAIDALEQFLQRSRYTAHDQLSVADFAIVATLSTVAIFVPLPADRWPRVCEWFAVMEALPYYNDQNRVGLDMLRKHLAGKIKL
# [2] = molecular target: T2, Nobo D111N (Anopheles gambiae, UniProt Q8WQJ5, D111N); test: spectrophotometric inhibition assay of purified mutant enzyme with DCNB and glutathione
# T2 construct: gene GSTe8; N-terminal hexahistidine tag
# [3] = molecular target: T1, Nobo; test: spectrophotometric inhibition assay of purified enzyme with DCNB and glutathione
# [4] = molecular target: T1, Nobo; test: spectrophotometric specific activity of purified enzyme
Compound,specific activity [4],other results
"C[C@]12CCC(=O)CC1=CC[C@@H]1[C@@H]2CC[C@]2(C)C(=O)CC[C@@H]12 [5-AD, 5-androsten-3,17-dione]",,steady-state kinetics of double-bond isomerization by purified enzyme (kcat/Km) [1]: (6.9 ± 0.3) × 10^6 M^−1s^−1
C[C@]12CC[C@@H]3c4ccc(O)cc4CC[C@H]3[C@@H]1CC[C@@H]2O [17β-estradiol],,IC50 [2]: 15.5 ± 6 µM; IC50 [3]: 0.17 ± 0.03 µM
"C=CCN=C=S [AITC, allyl isothiocyanate]",3.3 ± 0.4 μmol/min per mg,
"O=[N+]([O-])c1ccc(Cl)c([N+](=O)[O-])c1 [CDNB, 1-chloro-2,4-dinitribenzene]",24.7 ± 3.4 μmol/min per mg,
"CC(C)(OO)c1ccccc1 [CuOOH, cumene hydroperoxide]",5.0 ± 0.5 μmol/min per mg,
"O=[N+]([O-])c1ccc(Cl)c(Cl)c1 [DCNB, 1,2-dichloro-4-nitrobenzene]",16.4 ± 1.9 μmol/min per mg,
"S=C=NCCc1ccccc1 [PEITC, phenethyl isothiocyanate]",0.4 ± 0.1 μmol/min per mg,
